Reference: patent publication US20240287079A1, “6-AMINOPYRAZOLOPYRIMIDINE COMPOUND AND PHARMACEUTICAL USE THEREOF” (Japan Tobacco Inc., priority 2021, published 2024)

Target: NLRP3 inflammasome (Homo sapiens (Human), UniProt Q96P20)
Assay: Evaluation of NLRP3 inflammasome inhibitory activity (inhibition of IL-1β production in LPS/Nigericin-stimulated THP1-Null cells)
Assay type: cell-based
Settings: IL-1β production in THP1-Null cells; for IC50: PMA, LPS 1 μg/mL, Nigericin 7.5 μmol/L, AlphaLISA
Experimental: The NLRP3 inflammasome inhibitory activity of test compounds were evaluated on the basis of the inhibitory activity of the IL-1β production in THP1-Null cells (Product Number: thp-null, InvivoGen). […] The supernatant of the culture was removed, and thereto was added media for assay (25 μL/well) containing 1 μg/mL Lipopolysaccharides (Product Number: L2654, Sigma-Aldrich (registered trademark)). […] The supernatant of the culture was removed. […] A solution containing a test compound (20 μL/well) was added to test compound-setting wells. […] The supernatant of the culture was cryonically stored (set at −20° C.) until measurement of IL-1β.
The amount of IL-1β in the culture supernatant was quantitated with AlphaLISA(registered trademark) Human IL-1β Detection Kit (Product Number: AL220C, Perkin Elmer). Fluorescence intensity was measured with a microplate reader EnSpier (Model number: 2300-00J, Perkin Elmer) or EnSight(Model number: HH34000000, Perkin Elmer) according to procedure manuals attached thereto. Inhibition rates of the test compound-setting wells were calculated on the basis of 100% for the blank-setting wells and 0% for the control-setting wells.

Chain of NLRP3 inflammasome (Q96P20 whole entry): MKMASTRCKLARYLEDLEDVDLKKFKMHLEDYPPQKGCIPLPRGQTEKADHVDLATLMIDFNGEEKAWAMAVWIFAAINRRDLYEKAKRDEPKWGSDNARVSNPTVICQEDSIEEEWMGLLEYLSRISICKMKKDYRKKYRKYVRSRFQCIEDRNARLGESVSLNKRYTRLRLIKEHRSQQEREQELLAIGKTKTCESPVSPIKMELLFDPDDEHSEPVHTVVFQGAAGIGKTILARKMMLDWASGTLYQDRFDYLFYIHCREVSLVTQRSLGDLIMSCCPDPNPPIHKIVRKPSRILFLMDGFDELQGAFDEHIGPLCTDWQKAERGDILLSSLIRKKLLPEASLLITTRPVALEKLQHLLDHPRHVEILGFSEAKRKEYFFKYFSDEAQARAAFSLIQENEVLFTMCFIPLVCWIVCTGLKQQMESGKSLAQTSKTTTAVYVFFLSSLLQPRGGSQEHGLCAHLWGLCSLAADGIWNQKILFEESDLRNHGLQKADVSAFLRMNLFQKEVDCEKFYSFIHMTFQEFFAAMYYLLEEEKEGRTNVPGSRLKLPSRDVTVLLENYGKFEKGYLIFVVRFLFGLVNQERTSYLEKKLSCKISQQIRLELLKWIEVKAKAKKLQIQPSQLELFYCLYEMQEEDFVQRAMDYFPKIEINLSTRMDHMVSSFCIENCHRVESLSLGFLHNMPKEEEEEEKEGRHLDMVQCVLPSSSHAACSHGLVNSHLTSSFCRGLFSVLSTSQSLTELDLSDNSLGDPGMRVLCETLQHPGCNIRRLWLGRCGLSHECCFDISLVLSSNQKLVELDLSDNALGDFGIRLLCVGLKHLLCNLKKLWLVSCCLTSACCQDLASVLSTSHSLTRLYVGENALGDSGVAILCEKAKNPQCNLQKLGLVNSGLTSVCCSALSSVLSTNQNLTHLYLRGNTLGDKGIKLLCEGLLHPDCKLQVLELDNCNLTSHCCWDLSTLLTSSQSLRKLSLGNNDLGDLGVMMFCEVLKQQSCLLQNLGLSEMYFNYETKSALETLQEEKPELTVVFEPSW

Compound	IC50 [nM]	further results
Cc1ccccc1-n1cc2c(=O)[nH]c(N3CCC3Cc3ccccc3)nc2n1 (racemic) [Example 38]	2500	
COCCNc1nc2nn(-c3ccc(C)cc3C)cc2c(=O)[nH]1 [Example 60]	240	
CO[C@@H]1CCN(c2nc3nn(-c4c(C)cc(Br)cc4C)cc3c(=O)[nH]2)C1 [Example 316]	6.4	
Cc1cc(Br)ccc1-n1cc2c(=O)n(CC#N)c(N3CCOCC3)nc2n1 [Example 172]	190	
Cn1c(N2CC3CC(C2)O3)nc2nn(-c3ccc(Br)cc3C(F)(F)F)cc2c1=O [Example 311]	320	
Cc1cc(Br)cc(C)c1-n1cc2c(=O)[nH]c(NC(C)C)nc2n1 [Example 235]		inhibition at 0.0024 µM (test compound 0.0024 μM): 52%
Cc1cc(Br)cc(C)c1-n1cc2c(=O)[nH]c(N3CCCOCC3)nc2n1 [Example 145]	12	
Cc1nc(C(F)(F)F)ccc1-n1cc2c(=O)[nH]c(N3CCOCC3)nc2n1 [Example 121]	540	
COC[C@@H]1CCN(c2nc3nn(-c4ccc(Br)cc4C)cc3c(=O)[nH]2)CCO1 [Example 192]	32	
Cc1cc(C2CC2)ncc1-n1cc2c(=O)[nH]c(N3CCOCC3)nc2n1 [Example 202]	640	
CONc1nc2nn(-c3c(C)cc(Br)cc3C)cc2c(=O)[nH]1 [Example 336]	28	
O=c1[nH]c(N2CCOCC2)nc2nn(-c3ccc(C4CC4)cc3OC(F)(F)F)cc12 [Example 208]	14	
Cc1cc(Br)ccc1-n1cc2c(=O)n(CCO)c(N3CCOCC3)nc2n1 [Example 163]	47	
COc1nc(N2CCCC2)nc2nn(-c3ccccc3C)cc12 [Example 13]	7700	
CC(C)(C)c1ccc(-n2cc3c(=O)[nH]c(N4CCOCC4)nc3n2)c(Br)c1 [Example 306]	85	
Cc1ccccc1-n1cc2c(=O)[nH]c(N3CCCC3)nc2n1 [Example 3, 6-(pyrrolidin-1-yl)-2-(o-tolyl)-2,5-dihydro-4H-pyrazolo[3,4-d]pyrimidin-4-one]	530	
O=c1[nH]c(N2CCOCC2)nc2nn(-c3c(F)cc(C4CC4)cc3C(F)(F)F)cc12 [Example 273]	13	
Cc1cc(Br)ccc1-n1cc2c(=O)[nH]c(N3CCN(S(C)(=O)=O)CC3)nc2n1 [Example 91]	6.7	
O=c1[nH]c(N2CCOCC2)nc2nn(-c3ccc(C4CC4)cc3C(F)F)cc12 [Example 244]	22	
COC1CN(c2nc3nn(-c4ccccc4C)cc3c(=O)[nH]2)C1 [Example 33]	2300	
O=c1[nH]c(N2CCCC2)nc2nn(-c3ccc(Cl)cc3C(F)(F)F)cc12 [Example 218]	5.7	
O=c1[nH]c(N2C[C@H]3C[C@@H]2CO3)nc2nn(-c3ccc(Br)cc3C(O)C3CC3)cc12 (stereo partly drawn) [Example 309]	110	
COCC(=O)N1CC2CC1CN2c1nc2nn(-c3c(C)cc(C4CC4)cc3C)cc2c(=O)[nH]1 (racemic) [Example 234]	24	
O=c1[nH]c(N2CCCC2)nc2nn(-c3ccc(C(F)(F)F)cc3Cl)cc12 [Example 86]	2.9	

Compound	IC50 [nM]	further results
Cc1cc(Br)cc(C)c1-n1cc2c(=O)[nH]c(N3CCC(C(C)(C)O)C3)nc2n1 (racemic) [Example 194]	24	
O=c1[nH]c(N2CCOCC2)nc2nn(-c3ccc(Br)cc3C(F)F)cc12 [Example 243]	68	
N#Cc1ccccc1-n1cc2c(=O)[nH]c(N3CCCC3)nc2n1 [Example 29]		inhibition at 24 µM (test compound 24 μM): 2%
Cc1ccc(C(F)(F)F)cc1-n1cc2c(=O)[nH]c(N3CCCC3)nc2n1 [Example 6]	4000	
Cc1cc(C2CC2)cc(C)c1-n1cc2c(=O)[nH]c(N3C[C@H]4C[C@@H]3CO4)nc2n1 [Example 209, 6-((1R,4R)-2-oxa-5-azabicyclo[2.2.1]heptan-5-yl)-2-(4-cyclopropyl-2,6-dimethylphenyl)-2,5-dihydro-4H-pyrazolo[3,4-d]pyrimidin-4-one]	5.1	
Cc1cc(Br)ccc1-n1cc2c(=O)[nH]c(N3CCS(=O)(=O)CC3)nc2n1 [Example 79]	5.9	
Cc1cc(Br)cc(C(F)(F)F)c1-n1cc2c(=O)[nH]c(N3CCOCC3)nc2n1 [Example 174]	12	
Cc1cc(Br)ccc1-n1cc2c(=O)[nH]c(N3CCOCC3)nc2n1 [Example 69]	24	
O=c1[nH]c(N2CC3(CC(O)C3)C2)nc2nn(-c3ccc(C(F)(F)F)cc3Cl)cc12 [Example 183]	15	
Cc1cc(Br)cc(C)c1-n1cc2c(=O)[nH]c(N3CC4(CC(O)C4)C3)nc2n1 [Example 199]	6.8	
COC1CCN(c2nc3nn(-c4c(C)cccc4C)cc3c(=O)[nH]2)C1 (racemic) [Example 54]	480	
Cc1cc(Br)cc(C)c1-n1cc2c(=O)n(C)c(N3CC4CC(C3)O4)nc2n1 [Example 310]	450	
CC(=O)c1cc(Br)ccc1-n1cc2c(=O)[nH]c(N3CCOCC3)nc2n1 [Example 131]	63	
CO[C@H]1CCN(c2nc3nn(-c4c(C)cc(Br)cc4C)cc3c(=O)[nH]2)C1 [Example 318]	32	
Cc1cc(C(F)(F)F)cc(C)c1-n1cc2c(=O)[nH]c(N3CC4CC(C3)O4)nc2n1 [Example 277]	16	
Cc1ccc(C(F)(F)F)c(-n2cc3c(=O)[nH]c(N4CCOCC4)nc3n2)c1 [Example 341]	270	
Cc1ccc(-n2cc3c(=O)[nH]c(N4CCOCC4)nc3n2)c(C)c1 [Example 58]	120	
Cc1cc(Br)ccc1-n1cc2c(=O)[nH]c(N3CC4CC(C3)O4)nc2n1 [Example 169]	17	
Cc1cc(C)c(-n2cc3c(=O)[nH]c(N4CCC(S(C)(=O)=O)C4)nc3n2)c(C)c1 (racemic) [Example 112]	55	
COCCOc1nc(N2CCOCC2)nc2nn(-c3ccc(Br)cc3C)cc12 [Example 154]	590	
O=c1[nH]c(N2CCOCC2)nc2nn(-c3ccc(Br)cc3C(F)(F)F)cc12 [Example 241]	11	
CC(C)Oc1cc(Br)ccc1-n1cc2c(=O)[nH]c(N3CCOCC3)nc2n1 [Example 303]	88	
Cc1cc(C)c(-n2cc3c(=O)[nH]c(N4CCCC(O)C4)nc3n2)c(C)c1 (racemic) [Example 107]	58	
Cc1cc(Br)cc(C)c1-n1cc2c(=O)[nH]c(N3CCC[C@@H]3C)nc2n1 [Example 285]	27	

Compound	IC50 [nM]	further results
Cc1cc(Br)ccc1-n1cc2c(=O)[nH]c(N3CCNC(=O)C3)nc2n1 [Example 78]	28	
Cc1cc(Cl)cc(C(=O)C2CC2)c1-n1cc2c(=O)[nH]c(N3CCOCC3)nc2n1 [Example 167]	430	
Cc1ccc(-n2cc3c(=O)[nH]c(N4CCCC4)nc3n2)c(C)c1 [Example 45]	70	
Cc1cc(Br)ccc1-n1cc2c(=O)n(C)c(N3CCOCC3)nc2n1 [Example 88, 2-(4-bromo-2-methylphenyl)-5-methyl-6-morpholino-2,5-dihydro-4H-pyrazolo[3,4-d]pyrimidin-4-one]	39	
CNc1nc2nn(-c3ccc(C)cc3C)cc2c(=O)[nH]1 [Example 65]	80	
Cc1cc(C2CC2)cc(C(F)(F)F)c1-n1cc2c(=O)[nH]c(N3CCOCC3)nc2n1 [Example 175]	13	
Cc1c2c(=O)[nH]c(N3CCCC3)nc2nn1-c1ccc(C(F)(F)F)cc1Cl [Example 170]	88	
Cc1cccc(-n2cc3c(=O)[nH]c(N4CCCC4)nc3n2)c1C [Example 47]	230	
O=c1[nH]c(N2CCCC2)nc2nn(-c3ccc(C(F)(F)F)cc3)cc12 [Example 49]	340	
Cc1cc(C2CC2)cc(F)c1-n1cc2c(=O)[nH]c(N3CCOCC3)nc2n1 [Example 255]	6.2	
Cc1ccccc1-n1cc2c(=O)[nH]c(N3CCC(c4ccccc4)C3)nc2n1 (racemic) [Example 27]	1200	
O=c1[nH]c(N2CCOCC2)nc2nn(-c3ccc(C4CC4)cc3C(F)(F)F)cc12 [Example 177]	5.6	
O=c1[nH]c(N2CCOCC2)nc2nn(-c3c(Cl)cc(C(F)(F)F)cc3OCC3CC3)cc12 [Example 190]	41	
Cc1cc(Br)ccc1-n1cc2c(=O)[nH]c(N3Cc4ccccc4C3)nc2n1 [Example 75]	14	
CC(=O)N1CCN(c2nc3nn(-c4ccc(Br)cc4C)cc3c(=O)[nH]2)CC1 [Example 73]	8.2	
Cc1nn(C)c(C)c1-n1cc2c(=O)[nH]c(N3CCCC3)nc2n1 [Example 342]		inhibition at 2.4 µM (test compound 2.4 μM): 45%
Cc1cc(C(C)C)cc(C)c1-n1cc2c(=O)[nH]c(N3CCOCC3)nc2n1 [Example 301]	21	
O=c1[nH]c(N2CC(F)C2)nc2nn(-c3ccc(C(F)(F)F)cc3Cl)cc12 [Example 181]	17	
Cc1cc(Br)ccc1-n1cc2c(=O)[nH]c(N3CCCOCC3)nc2n1 [Example 142]	22	
Cc1ccccc1-n1cc2c(=O)[nH]c(NCC(C)C)nc2n1 [Example 35]	1700	
Cc1ccccc1-n1cc2c(=O)[nH]c(N3CCOCC3)nc2n1 [Example 5]	1400	
O=c1[nH]c(N2C[C@@H]3C[C@H]2CO3)nc2nn(-c3ccc(C4CC4)cc3C(F)(F)F)cc12 [Example 263]	8.6	
Cc1cc(Br)cc(C)c1-n1cc2c(=O)[nH]c(N3CCOCC3O)nc2n1 (racemic) [Example 363]	2.9	
Cc1cccc(C)c1-n1cc2c(=O)[nH]c(N3CCOCC3)nc2n1 [Example 233]	760	
